From patent US20190388364A1, “[…] A LOCAL […]” (GRÜNENTHAL GMBH, priority 2017, published 2019)

Tested on: guinea pig skin twitch response
Test: guinea pig skin test (skin twitch response, local anesthetic effect)
Assay type: in vivo
Settings: for Stimuli per twitch response (means ± s.e.m.): max 20 stimuli; for number of animals with abrogated twitch response (max. effect): no twitch response after 20 stimuli
Method: The local anesthetic effects of Tapentadol were studied in a guinea pig skin test.
Animals: Male Pirbright White guinea pigs from a commercial breeder (ca. 400 g body weights) were used for the study. The animals were housed under standard conditions: room temperature […], rel. air changes per hour, air movement <0.2 m/sec, light/dark rhythm (06.00-18.00 h light, 18.00-06.00 h dark). The animals had access to water ad libitum and to an exclusive diet of “Herilan RM 204” (Eggersmann Company, Rinteln/Germany). Before the experiment they lived in groups of 5-8 animals in type IV Makrolone cages (Ebeco Company, Castrop-Rauxel/Germany). There were at least five days between delivery of the animals and the test day.
Tapentadol (test compound was) dissolved in 0.9% NaCl solution. Application route: intradermal application. Application volume: 0.1 ml per application site. Concentrations: 0.05/0.01/0.3/0.5%.
Application route: intradermal application. Application volume: 0.1 ml per application site. Concentrations: 0.1/0.3/1.0.
The experiments were performed according to a modified method originally described by Bülbring and Wajda (J Pharm Exp Ther 85: 78-84, 1945). After erasure of the back of the animals 0.1 ml of solutions of the test compounds or of vehicle (0.9% NaCl) were injected intradermally. There were 3 injection sites each on both flanks of the back with a craniocaudal distance between them of 1.5 cm. A twitch response of the skin musculature was provoked by contact of these sites with the tip of an injection cannula. The number of the stimuli needed to provoke a twitch response was registered. A maximum of 20 stimuli per site was allowed. […] Thereafter, solution with different concentrations of the test compounds or vehicle were injected and the skin sensitivity was evaluated at 2, 5, 10, 15 and 20 min. The different test solutions were injected on both flanks of the back into the cranial, intermediate or caudal test site in a randomized order.
Test parameter: Stimuli per twitch response.
Each concentration of the test compounds was tested at 6-7 sites. The means±s.e.m. of stimuli that were necessary to induce a twitch response were calculated for the different times after application. In addition, number of tests with a complete abolition of skin sensitivity (i.e., no twitch response after 20 stimuli) was used to calculate an EC50-value (with 95% confidence limits) according to Litchfield and Wilcoxon.

[1] = 0.1 wt.-% intradermal, 2 min after application
[2] = 0.1 wt.-% intradermal, 5 min after application
[3] = 0.1 wt.-% intradermal, 10 min after application
[4] = 0.1 wt.-% intradermal, 15 min after application
[5] = 0.1 wt.-% intradermal, 20 min after application
[6] = 0.3 wt.-% intradermal, 2 min after application
[7] = 0.3 wt.-% intradermal, 5 min after application
[8] = 0.3 wt.-% intradermal, 10 min after application
[9] = 0.3 wt.-% intradermal, 15 min after application
[10] = 0.3 wt.-% intradermal, 20 min after application

## CC[C@@H](c1cccc(O)c1)[C@@H](C)CN(C)C [Tapentadol, (1R,2R)-3-(3-dimethylamino-1-ethyl-2-methyl-propyl)-phenol]
0.05 wt.-% intradermal, 0.1 ml per site, 2 min after application
  Stimuli per twitch response (means ± s.e.m.): 6 ± 3
0.05 wt.-% intradermal, 5 min after application
  Stimuli per twitch response (means ± s.e.m.): 1
0.05 wt.-% intradermal, 10 min after application
  Stimuli per twitch response (means ± s.e.m.): 1
0.05 wt.-% intradermal, 15 min after application
  Stimuli per twitch response (means ± s.e.m.): 1
0.05 wt.-% intradermal, 20 min after application
  Stimuli per twitch response (means ± s.e.m.): 1
0.05 wt.-% intradermal
  number of animals with abrogated twitch response (max. effect): 1 of 7
[1]
  Stimuli per twitch response (means ± s.e.m.): 12 ± 4
[2]
  Stimuli per twitch response (means ± s.e.m.): 2 ± 1
[3]
  Stimuli per twitch response (means ± s.e.m.): 1
[4]
  Stimuli per twitch response (means ± s.e.m.): 1
[5]
  Stimuli per twitch response (means ± s.e.m.): 1
0.1 wt.-% intradermal
  number of animals with abrogated twitch response (max. effect): 3 of 6
[6]
  Stimuli per twitch response (means ± s.e.m.): 20
[7]
  Stimuli per twitch response (means ± s.e.m.): 20
[8]
  Stimuli per twitch response (means ± s.e.m.): 4 ± 3
[9]
  Stimuli per twitch response (means ± s.e.m.): 2 ± 1
[10]
  Stimuli per twitch response (means ± s.e.m.): 1
0.3 wt.-% intradermal
  number of animals with abrogated twitch response (max. effect): 7 of 7
0.5 wt.-% intradermal, 2 min after application
  Stimuli per twitch response (means ± s.e.m.): 20
0.5 wt.-% intradermal, 5 min after application
  Stimuli per twitch response (means ± s.e.m.): 20
0.5 wt.-% intradermal, 10 min after application
  Stimuli per twitch response (means ± s.e.m.): 10 ± 3
0.5 wt.-% intradermal, 15 min after application
  Stimuli per twitch response (means ± s.e.m.): 3 ± 2
0.5 wt.-% intradermal, 20 min after application
  Stimuli per twitch response (means ± s.e.m.): 1
0.5 wt.-% intradermal
  number of animals with abrogated twitch response (max. effect): 7 of 7
intradermal, 0.05 to 0.5%
  time of maximum effect after application: 2 min
intradermal, up to the highest concentration (0.5%)
  local anesthetic effect at 20 min after application: completely disappeared

## COc1cccc(C2(O)CCCCC2CN(C)C)c1 (centres unmarked) [Tramadol]
[1]
  Stimuli per twitch response (means ± s.e.m.): 1
[2]
  Stimuli per twitch response (means ± s.e.m.): 1
[3]
  Stimuli per twitch response (means ± s.e.m.): 1
[4]
  Stimuli per twitch response (means ± s.e.m.): 1
[5]
  Stimuli per twitch response (means ± s.e.m.): 1
[6]
  Stimuli per twitch response (means ± s.e.m.): 8 ± 3
[7]
  Stimuli per twitch response (means ± s.e.m.): 6 ± 3
[8]
  Stimuli per twitch response (means ± s.e.m.): 3 ± 2
[9]
  Stimuli per twitch response (means ± s.e.m.): 3 ± 2
[10]
  Stimuli per twitch response (means ± s.e.m.): 3 ± 2
1.0 wt.-% intradermal, 2 min after application
  Stimuli per twitch response (means ± s.e.m.): 20
1.0 wt.-% intradermal, 5 min after application
  Stimuli per twitch response (means ± s.e.m.): 20
1.0 wt.-% intradermal, 10 min after application
  Stimuli per twitch response (means ± s.e.m.): 20
1.0 wt.-% intradermal, 15 min after application
  Stimuli per twitch response (means ± s.e.m.): 15 ± 3
1.0 wt.-% intradermal, 20 min after application
  Stimuli per twitch response (means ± s.e.m.): 14 ± 3
